We go through one compound from US20220175917A1, “COMBINATION OF IAP INHIBITOR AND IMMUNE CHECKPOINT INHIBITOR” (CHIA TAI TIANQING PHARMACEUTICAL GROUP CO., LTD., priority 2019, published 2022).

The subject of assay [1] is mouse triple-negative breast cancer EMT6 cell line. Nature of the assay: In-vivo drug efficacy study 1: EMT6 transplanted BALB/c mouse model, tumor volume. The settings on record: for Tumor volume Day 0: Day 0 (start of dosing). As to the method:
To evaluate the tumor immunotherapeutic effect of test drugs in the mouse triple-negative breast cancer EMT6 cell line (EMT6 is from ATCC, cell No.: CRL-2755) transplanted BALB/c mouse model.
BALB/c mice, female, 6-7 weeks old, weighing about 19.1-22.6 g, were housed in separated ventilated boxes with constant temperature and humidity. The feeding room was under the following conditions: temperature: 20-26° C., humidity: 40-70%, ventilation: 10-20 times/h, and light/dark cycle: 12 h/12 h. The Co-60 radiation-sterilized complete pellet feed for mice was supplied continuously and can be taken freely without limitation, and the drinking tap water (used after autoclaving) was supplied continuously by the water bottle and can be taken freely. A total of 144 mice purchased from Shanghai Lingchang Biotechnology Co., Ltd. were used for the study. The BALB/c mice were inoculated with EMT6 cells subcutaneously to establish murine breast cancer models with subcutaneously-transplanted tumors. The mice were administered when the mean tumor volume reached about 97.3 mm^3. The test compounds were administered orally once every 3 days at a dose of 50 mg/kg. PD1 mAb (from BioXcell, cat No.: BP0146, batch No.: 695318A1B, clone No.: RMP1-14) was administered intraperitoneally once every 3 days at a dose of 10 mg/kg. Tumor volume was measured every 3 days with a two-dimensional caliper, and the volume was measured in mm^3 and calculated according to the following formula: V=0.5 a×b^2, where a and b are the long and short diameters, respectively, of the tumor. Anti-tumor efficacy was determined by dividing the mean tumor increase volume of compound-treated animals by the mean tumor increase volume of untreated animals.

Assay [2] relates to mouse colon cancer MC38 cell line. Nature of the assay: In vivo efficacy study 2: MC38 transplanted BALB/c mouse model, tumor volume. The settings on record: combination Example 2 50 mg/kg orally twice a week + Anti-PD1 10 mg/kg intravenously once a week, MC38, BALB/c mice. The text has this:
To evaluate the tumor immunotherapeutic effect of test drugs in the mouse colon cancer MC38 cell line (from Obio Technology (Shanghai) Co., Ltd.) transplanted BALB/c mouse model.
BALB/c mice, female, 6-7 weeks old, weighing about 18-22 g, were kept in a special pathogen-free environment and in separated ventilated cages (3-5 mice per cage). All cages, bedding and water were disinfected prior to use. All animals had free access to standard certified commercial laboratory diets. A total of 48 mice purchased from Shanghai Slac Laboratory Animal Co., Ltd. were enrolled. Each mouse was implanted subcutaneously in the right flank with mouse colon cancer MC38 cells (2×10^5 cells in 0.1 mL of phosphate buffered saline) for tumor growth. The mice were administered when the mean tumor volume reached about 70 mm^3. Test compounds were administered orally twice a week (morning and afternoon) at a dose of 50 mg/kg; PD-1 antibody (from BioXcell, cat. No.: BP0146, batch No.: 640517M2B) was administered intravenously once a week at a dose of 10 mg/kg. Tumor volume was measured […] with a two-dimensional caliper, and the volume was measured in mm^3 and calculated according to the following formula: V=0.5 a×b^2, where a and b are the long and short diameters, respectively, of the tumor. Anti-tumor efficacy was determined by dividing the mean tumor increase volume of compound-treated animals by the mean tumor increase volume of untreated animals.

[3] abbreviates: Example 2 alone, 50 mg/kg orally once every 3 days, EMT6 subcutaneous, BALB/c mice.
The mark [4] stands for this setting: combination Example 2 50 mg/kg orally + Anti-PD1 10 mg/kg intraperitoneally, each once every 3 days, EMT6, BALB/c mice.

In the case of `CN[C@@H](C)C(=O)N[C@H](C(=O)N1CCC[C@H]1Cn1cc(C(C)=O)c2cc(Cl)ccc21)C1CCCCC1` [Example 2], in assay [1] (setting [3]), the “Tumor volume Day 0” value turned out to be 97.3 mm^3, the “Tumor volume Day 7” value is 355.5 mm^3, the “Tumor volume Day 14” value amounted to 1097.7 mm^3 and the “Tumor volume Day 25” value is 2225.8 mm^3. In addition, in assay [1] (setting [4]), the “Tumor volume Day 0” value came out at 97.3 mm^3, the “Tumor volume Day 7” value came to 332.4 mm^3, the “Tumor volume Day 14” value was 174.2 mm^3 and the “Tumor volume Day 25” value turned out to be 31.5 mm^3. For the same compound, the “Tumor volume Day 0” value in assay [2] (Day 0 (start of dosing)) came out at 51.6 mm^3. For the same compound, in assay [2] (Day 5), the “Tumor volume Day 5” value was 140.7 mm^3. Further, the “Tumor volume Day 12” value in assay [2] (Day 12) is 215.5 mm^3. Besides, the “Tumor volume Day 20” value in assay [2] (Day 20) is recorded as 427.1 mm^3.
